Patent US5567693A, “Method for inhibiting angiogenesis, proliferation of endothelial or tumor cells and tumor growth” (American Cyanamid Company, priority 1994, dated 1996)
Structures can show the parent of a compound that is named as a salt. Where two headings read alike, the source gives them in different places.

What was measured:
Assay type in all cases: cell-based
A2780S = assay: Antiproliferative activity in human tumor cell lines: A2780S (ovarian); conditions: PROTOCOL 1 and PROTOCOL 2, 48 hours
Procedure: (§1) The assays are identified as follows:
(§2) PROTOCOL 1,2,and 3 are described in greater detail hereinbelow. In general, according to PROTOCOLS 1 and 2, the target ABAE and/or Human Tumor cells are exposed to the compounds of Formula I for 48 hours. PROTOCOL 3 exposes ABAE cells to the compounds for 4 days. A detailed description of the protocols is as follows:
(§3) The antiproliferative activity of the compounds of Formula I of the present invention is evaluated in a panel comprised of human tumor cell lines and an adult bovine aortic endothelial cell line (ABAE). The human tumor cell lines are from
(§4) Cultures are renewed after 20 passages with cells from a fresh stock of batch-frozen early passage cells. Cell lines are routinely checked for mycoplasma contamination (Genprobe). In a laminar flow hood, cells (1-5×10^4) are plated into 96-well microtiter plates in a volume of 0.1 ml/well with a bulk microtiter dispenser (Denley). […] Compounds are added using a Tomtec dispenser which simultaneously dispenses from one 96-well plate, containing the drug dilutions, to the plates containing the cells. After two days of continuous drug exposure, 50% cold trichloroacetic acid (TCA) is added to 10% final concentration to fix the cells, and after 60 minutes at 4° C., the TCA is aspirated and the plates are washed 5 times with deionized water using a microtiter plate washer. […] A 0.4% solution of the dye, sulforhodamine B, in […] is added to the plates, and the plates are washed 5 times with 1% glacial acetic acid using the automatic plate washed. The bound stain is solubilized with 0.1 ml of 10 mM Tris base. The optical densities are read from an automatic spectrophotometric plate reader (Dynatech) directly to a main frame computer (VAX 8600).
(§5) Positive controls, that include standard chemotherapeutic drugs (i.e., Adriamycin, Cisplatin, etc.), are included in every experiment.
(§6) Background optical density measurements (complete media-cells, and complete media+drug-cells) are automatically subtracted from the appropriate control and test wells. Mean values and standard errors are determined from duplicate wells. A measure is also made of the optical density at time when the drugs are added. The number of cells after treatment (P), as % of control, is calculated for every concentration of drug, as follows: [formula] wherein: T is optical density measurement for treated cells after 48 hours;
(§7) C is optical density measurement for untreated cells after 48 hours;
(§8) Co is optical density measurement for cells at the time of drug addition.
(§9) IC50 of growth inhibition is calculated from the sets of P values using the RS-1 data package (BBN Software).
(§10) The antiproliferative activity of the compounds of Formula I is evaluated in a panel comprised of human tumor cell lines and an adult bovine aortic cell line (ABAE) as listed in PROTOCOL 1. This assay is a modification of PROTOCOL 1. The modifications include:
(§11) 1) each concentration for each compound is tested in a single well;
(§12) 2) compounds are tested at 20, 4, 0.8, 0.16 microgram/ml and additionally in some experiments at 100 and 0.32 microgram/ml;
(§13) 3) samples are pipetted into a 96-well plate for each of the cell lines by a Beckman Biomek 1000 SL robot;
(§14) 4) after fixing with TCA each well is washed with 0.35 ml distilled water twice, not five times;
(§15) 5) after staining with sulforhodamine B each well is washed 3 times, not five times;
(§16) 6) the growth inhibition (I) as % of control, is calculated using the RS-1 data package (BBN Software), for every concentration of drug, as follows: [formula] wherein: T is optical density measurement for treated cells after 48 hours;
(§17) 7) IC50 of growth inhibition is determined graphically from dose response curves, as is known in the art.

MIP = assay: Antiproliferative activity in human tumor cell lines: MIP (colon); conditions: PROTOCOL 1 and PROTOCOL 2, 48 hours
Procedure: (§18) The antiproliferative activity of the compounds of Formula I in an Adult Bovine Aortic Endothelial (ABAE) cell line and in Human Tumor cell lines is evaluated in three similar assays that measure growth inhibition. The assays are identified as follows:
as §2, §3
(§19) All cell lines are maintained in log phase in RPMI 1640 media, supplemented with 5% fetal calf serum, penicillin/streptomycin and 2 mM L-glutamine. Cultures are renewed after 20 passages with cells from a fresh stock of batch-frozen early passage cells. Cell lines are routinely checked for mycoplasma contamination (Genprobe). In a laminar flow hood, cells (1-5×10^4) are plated into 96-well microtiter plates in a volume of 0.1 ml/well with a bulk microtiter dispenser (Denley). […] At this concentration, dimethylsulfoxide has no effect on cell growth. Compounds are added using a Tomtec dispenser which simultaneously dispenses from one 96-well plate, containing the drug dilutions, to the plates containing the cells. After two days of continuous drug exposure, 50% cold trichloroacetic acid (TCA) is added to 10% final concentration to fix the cells, and after 60 minutes at 4° C., the TCA is aspirated and the plates are washed 5 times with deionized water using a microtiter plate washer. The number of cells on the plate are quantitated using a protein dye-binding assay (Monks et al., 1991). A 0.4% solution of the dye, sulforhodamine B, in glacial acetic acid is added to the plates, and the plates are washed 5 times with 1% glacial acetic acid using the automatic plate washed. The bound stain is solubilized with 0.1 ml of 10 mM Tris base. The optical densities are read from an automatic spectrophotometric plate reader (Dynatech) directly to a main frame computer (VAX 8600).
as §5, §6, §7, §8, §9, §10, §11, §12, §13, §14
(§20) 5) after staining with sulforhodamine B each well is washed 3 times, not five times; […]

CACO2 = assay: Antiproliferative activity in human tumor cell lines: CACO2 (colon); conditions: Homo sapiens
Procedure: as §18, §2, §3, §19, §5, §6, §7, §8, §9, §10, §11, §12, §13, §14, §20

HTB 161 = assay: Antiproliferative activity in human tumor cell lines: HTB 161 (ovarian); conditions: HTB 161 ovarian tumor, PROTOCOL 1 and PROTOCOL 2, 48 hours
Procedure: as §1, §2, §3, §4, §5, §6, §7, §8, §9, §10, §11, §12, §13, §14, §15, §16, §17

SW620 = assay: Antiproliferative activity in human tumor cell lines: SW620 (colon)
Procedure: as §18, §2, §3, §19, §5, §6, §7, §8, §9, §10, §11, §12, §13, §14, §20

Human Tumor cell lines = assay: Antiproliferative activity in the panel of human tumor cell lines; conditions: for IC50: Homo sapiens, average over the 6 tumor cell lines
Procedure: as §18, §2, §3, §19, §5, §6, §7, §8, §9, §10, §11, §12, §13, §14, §20

[1] = system: Adult Bovine Aortic Endothelial (ABAE) cell line; assay: Antiproliferative activity in ABAE cell line, PROTOCOL 3 (4 day assay)
Procedure: as §18, §2
Antiproliferative Activity in Adult Bovine Aortic Endothelial (ABAE) Cell Line
ABAE cells are grown in DMEMmedia (Mediatech, Washington, D.C.) supplemented with 10% calf serum (Hyclone). ABAE cells are plated in 24-well dishes at 8,000 cells/well, followed by the addition of increasing concentrations of 7-(hydrogen or di(C1 -C4)alkylamino)-8-halogen-9-(substituted)-6-demethyl-6-deoxytetracycline. After four days, the cells are detached and counted. […] The growth inhibition (I) as % of control is calculated as follows: [formula] wherein: Nc is the number of cells in untreated wells;
Nt is the number of cells in treated wells;
No is the number of plated cells.
IC50 of growth inhibition is determined from the sets of I values plotted by Kaleidograph software (Abelbeck Software).
In addition FIG. 1, presents the dose response curve for the compound of Example 10 for the above ABAE cell line obtained by using PROTOCOL 3.

[2] = Caco-2, CACO2 colon tumor, PROTOCOL 1 and PROTOCOL 2, 48 hours, read-out: IC50
[3] = SW-620, SW620 colon tumor, PROTOCOL 1 and PROTOCOL 2, 48 hours, read-out: IC50

Structure (SMILES) | IC50 (A2780S) [µg/mL] | IC50 (MIP) [µg/mL] | IC50 (CACO2; [2]) [µg/mL] | IC50 (HTB 161) [µg/mL] | IC50 (SW620; SW-620, 48 h) [µg/mL] | IC50 (Human Tumor cell lines) [µg/mL] | IC50 (SW620; [3]) [µg/mL] | IC50 (CACO2; Caco-2, 48 h) [µg/mL] | inhibition of cell growth at the highest concentrations (Human Tumor cell lines; FIG. 2, 6 Human Tumor cell lines, highest concentrations) | Dead floating cells (Human Tumor cell lines; at the highest concentration) | activity upon incubation with cells ([1]; 4 day assay (PROTOCOL 3)) | IC50 ([1]; Bos taurus, 96 h, PROTOCOL 3, 4 day assay, read-out: inhibits 50% of cell growth) [µg/mL]
CCCCCNCC(=O)Nc1c(Cl)cc2c(c1O)C(=O)C1=C(O)[C@]3(O)C(=O)C(C(N)=O)=C(O)[C@@H](N(C)C)C3CC1C2 (stereo partly drawn) [Example 6, [4S-(4α, 12aα)]-8-Chloro-4-(dimethylamino)-1,4,4a,5,5a,6,11,12a-octahydro-3,10,12,12a-tetrahydroxy-1,11-dioxo-9-[[(pentylamino)acetyl]amino]-2-naphthacenecarboxamide dihydrochloride] | 0.5 | 1.5 | 0.7 | 0.5 | 0.8 | 0.8 |  |  |  |  |  | 
CN(C)c1c(Cl)cc(O)c2c1CC1CC3[C@H](N(C)C)C(O)=C(C(N)=O)C(=O)[C@@]3(O)C(O)=C1C2=O (stereo partly drawn) [Example 11, [4S-(4α,12aα)]-8-Chloro-4,7-bis(dimethylamino)-1,4,4a,5,5a,6,11,12a-octahydro-3,10,12,12a-tetrahydroxy-1,11-dioxo-2-naphthacenecarboxamide sulfate] | 1.6 | 2.6 | 3.6 | 0.7 |  | 2.8 | 4.5 |  |  |  |  | 
CCCNCC(=O)Nc1c(Cl)cc2c(c1O)C(=O)C1=C(O)[C@]3(O)C(=O)C(C(N)=O)=C(O)[C@@H](N(C)C)C3CC1C2 (stereo partly drawn) [Example 5, [4S-(4α, 12aα)]-8-Chloro-4-(dimethylamino)-1,4,4a,5,5a, 6,11,12a-octahydro-3,10,12,12a-tetrahydroxy-1,11-dioxo-9-[[(propylamino)acetyl]amino]-2-naphthacenecarboxamide dihydrochloride] | 3 | 10 |  | 4 |  | 4.6 | 3.5 | 4 | no 100% inhibition of cell growth | not observed |  | 
CN(C)[C@@H]1C(O)=C(C(N)=O)C(=O)[C@@]2(O)C(O)=C3C(=O)c4c(cc(Cl)c(NC(=O)CN5CCCC5)c4O)CC3CC12 (stereo partly drawn) [Example 9, [7S-(7α,10aα)]-N-[9-(Aminocarbonyl)-3-chloro-7-(dimethylamino)-5,5a,6,6a,7,10,10a,12-octahydro-1,8,10a,11-tetrahydroxy-10,12-dioxo-2-naphthacenyl]-1-pyrrolidineacetamide dihydrochloride] | 1.3 | 0.8 | 1.7 | 1.9 | 2 | 1.45 |  |  |  |  |  | 
CN(C)[C@@H]1C(O)=C(C(N)=O)C(=O)[C@@]2(O)C(O)=C3C(=O)c4c(cc(Cl)c(NC(=O)CN5CCCCC5)c4O)CC3CC12 (stereo partly drawn) [Example 10, 7S-(7α,10aα)]-N-[9-(Aminocarbonyl)-3-chloro-7-(dimethylamino)-5,5a,6,6a,7,10,10a,12-octahydro-1,8,10a,11-tetrahydroxy-10,12-dioxo-2-naphthacenyl]-1-piperidineacetamide dihydrochloride] | 0.5 | 0.7 | 0.65 | 0.6 | 0.6 | 0.6 |  |  |  |  | retains its activity | ~0.4
CN(C)[C@@H]1C(O)=C(C(N)=O)C(=O)[C@@]2(O)C(O)=C3C(=O)c4c(cc(Cl)c(NC(=O)CNCC5CC5)c4O)CC3CC12 (stereo partly drawn) [Example 8, [4S-(4α,12aα)]-8-Chloro-9-[[(cyclopropylmethylamino)-acetyl]amino]4-(dimethylamino)-1,4,4a,5,5a,6,11,12a-octahydro-3,10,12,12a-tetrahydroxy-1,11-dioxo-2-naphthacenecarboxamide dihydrochloride] | 2.2 | 3.8 | 2.8 | 1 |  | 2.45 | 2.4 |  |  |  |  | 
CNCC(=O)Nc1c(Cl)cc2c(c1O)C(=O)C1=C(O)[C@]3(O)C(=O)C(C(N)=O)=C(O)[C@@H](N(C)C)C3CC1C2 (stereo partly drawn) [Example 7, [4S-(4α, 12aα)]-8-Chloro-4-(dimethylamino)-1,4,4a,5,5a,6,11,12a-octahydro-3,10,12,12a-tetrahydroxy-1,11-dioxo-9-[[(methylamino)acetyl]amino]-2-naphthacenecarboxamide dihydrochloride] | 4.6 | 8.5 | 3.8 | 1.3 |  | 4.3 | 4 |  |  |  |  | 
CCCCNCC(=O)Nc1c(Cl)cc2c(c1O)C(=O)C1=C(O)[C@]3(O)C(=O)C(C(N)=O)=C(O)[C@@H](N(C)C)C3CC1C2 (stereo partly drawn) [Example 4, [4S-(4α, 12aα)]-9-[[(Butylamino)acetyl]amino]-8-chloro-4-(dimethylamino) -1,4,4a,5,5a,6,11,12a-octahydro-3,10,12,12a-tetrahydroxy-1,11-dioxo-2-naphthacenecarboxamide dihydrochloride] | 2.5 | 3.1 | 2.5 | 1.2 |  | 2.5 | 2.8 |  |  |  |  | 
CN(C)CC(=O)Nc1c(Cl)cc2c(c1O)C(=O)C1=C(O)[C@]3(O)C(=O)C(C(N)=O)=C(O)[C@@H](N(C)C)C3CC1C2 (stereo partly drawn) [Example 3, [4S-(45, 12aα)]-8-Chloro-4-(dimethylamino)-9[[(dimethylamino)acetyl]amino]-1,4,4a,5,5a,6,11,12a-octahydro-3,10,12,12a-tetrahydroxy-1,11-dioxo-2-naphthacenecarboxamide disulfate] | 1.8 | 2.2 | 1.65 | 1 |  | 1.9 | 2.3 |  |  |  |  | 
